These results are taken from ChEMBL document CHEMBL1201862, “PubChem BioAssay data set” (2004).

Active and inactive are the calls of the source. Where only a bound is given, the exact number is not on record here.

Assay [1] concerns the target Alkaline phosphatase, placental type (Homo sapiens, UniProt P05187). In words: human placental alkaline phosphatase inhibition – biochemical, luminescence, confirmation (AID 1512). The format is functional.
The nature of assay [2]: Counterscreen for IDE inhibitors: Luminescence-based cell-based high throughput dose response assay to identify compounds that are cytotoxic to HEK cells. [Related pubchem assays: 434962 (Primary screen (IDE inhibitors in singlicate)), 449730 (Counterscreen (Cytotoxicity in triplicate)), 435028 (Confirmation (IDE inhibitors in triplicate)) …. Format: functional. The settings on record: HEK293.

In the next assay the target is T1, Insulin-degrading enzyme (Homo sapiens, UniProt P14735).
T1 sequence (P14735 whole entry): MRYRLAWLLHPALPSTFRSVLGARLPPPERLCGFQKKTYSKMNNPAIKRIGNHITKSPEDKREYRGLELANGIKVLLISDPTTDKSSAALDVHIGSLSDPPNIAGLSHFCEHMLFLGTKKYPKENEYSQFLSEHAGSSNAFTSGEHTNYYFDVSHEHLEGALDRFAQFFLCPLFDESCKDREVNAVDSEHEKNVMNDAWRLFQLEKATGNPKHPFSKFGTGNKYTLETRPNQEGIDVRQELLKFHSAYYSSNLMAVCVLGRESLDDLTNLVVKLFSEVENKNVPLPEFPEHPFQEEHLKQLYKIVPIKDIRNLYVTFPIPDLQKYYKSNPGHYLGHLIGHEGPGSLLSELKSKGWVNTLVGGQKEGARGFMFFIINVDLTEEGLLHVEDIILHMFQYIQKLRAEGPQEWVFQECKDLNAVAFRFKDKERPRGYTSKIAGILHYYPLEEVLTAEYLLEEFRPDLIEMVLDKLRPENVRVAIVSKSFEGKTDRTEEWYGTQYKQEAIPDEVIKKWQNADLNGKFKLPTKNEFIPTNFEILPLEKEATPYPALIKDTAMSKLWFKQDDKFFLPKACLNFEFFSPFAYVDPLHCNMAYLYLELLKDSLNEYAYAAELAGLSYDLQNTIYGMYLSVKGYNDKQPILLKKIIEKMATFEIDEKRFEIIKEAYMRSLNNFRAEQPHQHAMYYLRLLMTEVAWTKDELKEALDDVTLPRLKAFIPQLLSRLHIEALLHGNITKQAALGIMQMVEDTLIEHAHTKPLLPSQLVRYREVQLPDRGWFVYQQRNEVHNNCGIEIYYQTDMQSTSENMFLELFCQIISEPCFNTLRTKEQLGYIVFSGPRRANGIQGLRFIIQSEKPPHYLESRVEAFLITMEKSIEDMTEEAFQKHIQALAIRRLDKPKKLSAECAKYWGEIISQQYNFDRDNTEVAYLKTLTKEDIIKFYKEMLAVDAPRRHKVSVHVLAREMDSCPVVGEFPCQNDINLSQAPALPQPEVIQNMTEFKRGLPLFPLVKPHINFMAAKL
In words: Dose Response: Fluorescence polarization-based cell-based high throughput dose response assay for inhibitors of insulin-degrading enzyme (IDE). [Related pubchem assays: 434962 (Primary screen (IDE inhibitors in singlicate)), 449730 (Counterscreen (Cytotoxicity in triplicate)), 435028 (Confirmation (IDE inhibitors in triplicate)), 434984 (Summary …. Format: functional.

A further assay has as its target T2, Protein skinhead-1 (Caenorhabditis elegans, UniProt P34707).
T2 sequence (P34707 whole entry): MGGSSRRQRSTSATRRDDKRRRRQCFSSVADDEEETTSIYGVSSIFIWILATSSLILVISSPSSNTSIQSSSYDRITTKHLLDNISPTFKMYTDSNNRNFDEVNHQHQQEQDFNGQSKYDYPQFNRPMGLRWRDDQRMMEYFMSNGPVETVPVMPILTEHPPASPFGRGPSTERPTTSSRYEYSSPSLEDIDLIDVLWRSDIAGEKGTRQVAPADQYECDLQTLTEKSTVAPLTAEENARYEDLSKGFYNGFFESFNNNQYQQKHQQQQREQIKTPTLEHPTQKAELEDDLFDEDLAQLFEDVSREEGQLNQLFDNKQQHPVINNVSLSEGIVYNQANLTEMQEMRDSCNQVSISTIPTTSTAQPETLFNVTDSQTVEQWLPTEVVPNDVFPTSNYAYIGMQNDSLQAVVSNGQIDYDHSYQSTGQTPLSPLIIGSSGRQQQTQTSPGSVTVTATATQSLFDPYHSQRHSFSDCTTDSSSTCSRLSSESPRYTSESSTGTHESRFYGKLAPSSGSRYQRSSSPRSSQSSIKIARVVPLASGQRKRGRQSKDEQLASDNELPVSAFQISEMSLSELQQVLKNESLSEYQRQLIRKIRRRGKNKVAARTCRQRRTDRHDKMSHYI
The format is functional.

Assay [3] addresses T3, Acyl-homoserine lactone acylase PvdQ (Pseudomonas aeruginosa (strain LESB58), UniProt Q9I194).
T3 sequence (Q9I194 whole entry): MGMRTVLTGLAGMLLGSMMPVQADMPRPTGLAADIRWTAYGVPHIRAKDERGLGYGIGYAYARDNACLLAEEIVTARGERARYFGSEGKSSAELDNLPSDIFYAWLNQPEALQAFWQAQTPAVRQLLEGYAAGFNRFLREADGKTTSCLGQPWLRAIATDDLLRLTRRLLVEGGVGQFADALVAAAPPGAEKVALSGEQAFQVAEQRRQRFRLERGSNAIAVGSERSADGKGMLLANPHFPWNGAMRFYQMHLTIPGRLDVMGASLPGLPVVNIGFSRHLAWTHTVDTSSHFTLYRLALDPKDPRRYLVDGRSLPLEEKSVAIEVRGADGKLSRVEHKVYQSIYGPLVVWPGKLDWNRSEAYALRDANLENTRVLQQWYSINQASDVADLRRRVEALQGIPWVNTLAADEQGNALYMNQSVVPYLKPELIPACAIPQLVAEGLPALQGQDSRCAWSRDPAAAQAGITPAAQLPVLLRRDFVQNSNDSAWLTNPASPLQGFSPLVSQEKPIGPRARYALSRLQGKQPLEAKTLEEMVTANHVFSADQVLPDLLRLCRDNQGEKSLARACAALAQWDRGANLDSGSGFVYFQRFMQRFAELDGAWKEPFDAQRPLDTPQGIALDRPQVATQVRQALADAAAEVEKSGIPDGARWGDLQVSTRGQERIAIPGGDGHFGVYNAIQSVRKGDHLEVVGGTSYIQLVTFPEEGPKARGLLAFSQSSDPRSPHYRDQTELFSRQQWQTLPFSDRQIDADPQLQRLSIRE
In words: PvdQ acylase enzyme activity blockers – biochemical, fluorescence, plate reader and imaging, cherry-picks, dose response (AID 493231).

The nature of assay [4]: DRD fibroblast viability loss – cell-based, non-viral oncogenic, luminescence, dose response (AID 1934). Format: functional. The settings on record: Homo sapiens.
Assay [5] deals with BJ. In words: BJ-TERT fibroblast viability loss – cell-based, RAS-independent, luminescence, dose response (AID 1933). Format: functional. The note with it: Homo sapiens.
The subject of assay [6] is BJ. In words: cells. The format is functional, cell-based. The settings on record: Homo sapiens.
Assay [7] concerns BJ. In words: BJ-TERT-LT-ST fibroblast viability loss – cell-based, RAS-independent, luminescence, dose response (AID 1935).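 Also: BJ fibroblasts immortalized with TERT plus LT and ST oncogenes.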 Format: functional. The settings on record: Homo sapiens.
For assay [8], the target named is FAD-linked sulfhydryl oxidase ALR (Homo sapiens, UniProt P55789). In words: ALR-catalysed DTT oxidation blockers – biochemical, H2O2 detection, luminescence, cherry-pick, dose response (AID 493248).
Chain of FAD-linked sulfhydryl oxidase ALR (P55789 whole entry): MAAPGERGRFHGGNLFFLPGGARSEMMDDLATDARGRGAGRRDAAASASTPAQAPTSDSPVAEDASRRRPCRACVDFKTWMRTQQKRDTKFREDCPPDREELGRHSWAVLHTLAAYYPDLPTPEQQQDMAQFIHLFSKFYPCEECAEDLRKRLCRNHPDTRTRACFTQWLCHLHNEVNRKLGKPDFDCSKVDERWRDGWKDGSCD
Assay [9] in a line: viability of PTEN-deleted HCT116 cells – cell-based, HCT116 PTEN knockout, dose response (AID 1047).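 Also: HCT116 colon tumor cells with PTEN knocked out; cells exposed to compound for 60 hours before readout; potency for loss of cell viability measured by luminescence.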 Format: functional.
The nature of assay [10]: viability of HCT116 lacking mutant beta-catenin – cell-based, human colon tumor, dose response (AID 1045).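 Also: HCT116 colon tumor cells with beta catenin knocked out; cells exposed to compound for 60 hours.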 Format: functional.
The target of assay [11] is Neurotensin receptor type 1 (Homo sapiens, UniProt P30989). The format is functional.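 Also: Image-based confirmatory dose-response assay measuring agonist activity at NTR1; NTR1-expressing U2OS osteosarcoma cells imaged for beta-arrestin GFP spot formation; agonist potency where compounds increase beta-arrestin recruitment.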
Chain of Neurotensin receptor type 1 (P30989 whole entry): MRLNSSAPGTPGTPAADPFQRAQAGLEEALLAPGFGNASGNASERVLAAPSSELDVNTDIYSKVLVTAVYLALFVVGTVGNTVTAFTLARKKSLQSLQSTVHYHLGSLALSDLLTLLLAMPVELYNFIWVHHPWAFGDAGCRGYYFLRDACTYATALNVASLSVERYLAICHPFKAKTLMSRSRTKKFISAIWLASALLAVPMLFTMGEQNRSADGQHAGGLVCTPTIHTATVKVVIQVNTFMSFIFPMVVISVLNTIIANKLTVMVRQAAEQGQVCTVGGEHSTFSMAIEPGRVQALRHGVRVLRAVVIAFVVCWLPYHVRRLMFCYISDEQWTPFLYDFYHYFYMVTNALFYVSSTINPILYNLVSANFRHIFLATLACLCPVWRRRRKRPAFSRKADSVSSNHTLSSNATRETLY
A short description of assay [12]: cAMP pathway inhibition in counterscreen cell line – TR-FRET cAMP detection, counter-screen for MC4R biased antagonist project, dose response (AID 602305).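 Also: U2OS cells stimulated with forskolin near its EC80 as the cAMP inducer; potency is for inhibition of forskolin-stimulated cAMP signaling.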 The format is functional, cell-based.
Another assay has as its target Melanocortin receptor 4 (Homo sapiens, UniProt P32245). In words: inhibitors of MC4R cAMP signaling – cell-based, TR-FRET, biased antagonists, dose response (AID 602298).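 Also: antagonist potency against agonist-stimulated cAMP production.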 Format: functional.
Assay [13] in a line: Luminescence Cell-Based Dose Retest to Confirm Inhibitors of Cancer Stem Cells. [Related pubchem assays (depositor defined):AID2717, AID2721]. Format: functional. The settings on record: Homo sapiens.
Assay [14] has as its system HEK293. In words: NOD2 signaling inhibitors in MDP-stimulated cells, cell-based, uHTS, luminescence (AID 2001). The note with it: Homo sapiens. The format is functional.
The subject of assay [15] is HEK293. In words: cells. Format: functional, cell-based. The settings on record: Homo sapiens.
Assay [16] relates to HEK293. In words: inhibition of NOD1-driven NF-kB reporter – cell-based, luminescence, uHTS, primary screen (AID 1578). The settings on record: Homo sapiens. The format is functional.
Assay [17] has as its system HEK293. In words: cells. Format: functional, cell-based. The note with it: Homo sapiens. This is another data set of the same source.
The nature of assay [18]: microbe, parasite or virus in culture. The format is functional. The settings on record: Mycobacterium tuberculosis.
Assay [19] addresses T4, C-C chemokine receptor type 6 (Homo sapiens, UniProt P51684).
T4 sequence (P51684 whole entry): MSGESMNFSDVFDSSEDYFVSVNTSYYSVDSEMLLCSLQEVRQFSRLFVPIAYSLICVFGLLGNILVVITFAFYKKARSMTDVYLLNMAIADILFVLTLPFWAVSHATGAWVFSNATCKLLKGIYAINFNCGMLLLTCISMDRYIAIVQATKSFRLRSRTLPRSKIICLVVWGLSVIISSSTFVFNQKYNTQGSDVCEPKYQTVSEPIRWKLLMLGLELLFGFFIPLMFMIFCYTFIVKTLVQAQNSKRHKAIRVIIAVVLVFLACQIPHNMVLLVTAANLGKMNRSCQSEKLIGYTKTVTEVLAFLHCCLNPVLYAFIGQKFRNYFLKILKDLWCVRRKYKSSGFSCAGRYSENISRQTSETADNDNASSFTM
In words: antagonism of CCR6 beta-arrestin recruitment – cell-based, luminescent beta-arrestin readout, dose response (AID 504728). Format: functional.

Assay [20] deals with Glucose-6-phosphate 1-dehydrogenase (Homo sapiens, UniProt P11413). In words: inhibition of Homo sapiens G6PD, dose series – biochemical, fluorescence, selectivity assay for P. falciparum G6PD inhibitor project, dose response (AID 504792). Format: functional.
Chain of Glucose-6-phosphate 1-dehydrogenase (P11413 whole entry): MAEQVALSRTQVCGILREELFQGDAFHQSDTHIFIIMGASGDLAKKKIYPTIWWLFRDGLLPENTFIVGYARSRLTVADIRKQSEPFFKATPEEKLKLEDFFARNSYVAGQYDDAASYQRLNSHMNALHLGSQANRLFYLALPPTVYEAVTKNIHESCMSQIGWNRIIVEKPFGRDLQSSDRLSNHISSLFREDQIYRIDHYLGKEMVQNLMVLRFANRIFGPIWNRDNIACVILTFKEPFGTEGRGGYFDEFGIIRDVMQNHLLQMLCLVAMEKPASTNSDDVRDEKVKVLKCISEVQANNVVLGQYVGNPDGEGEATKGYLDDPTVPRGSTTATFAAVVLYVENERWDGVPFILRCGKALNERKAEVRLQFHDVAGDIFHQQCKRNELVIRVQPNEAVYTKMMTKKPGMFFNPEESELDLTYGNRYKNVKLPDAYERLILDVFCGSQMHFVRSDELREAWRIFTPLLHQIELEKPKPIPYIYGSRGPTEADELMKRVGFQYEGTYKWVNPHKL
Another assay addresses Large T antigen (Simian virus 40, UniProt P03070). The format is functional, Betapolyomavirus macacae.
The next assay concerns the target Beta-galactosidase (Escherichia coli, UniProt Q8VNN2). In words: detection-enzyme interference by beta-gal modulators – biochemical, E. coli enzyme, set 3, artefact control for CCR6 antagonist project, dose response (AID 504712). The format is functional.
Assay [21] concerns the target DNA dC->dU-editing enzyme APOBEC-3G (Homo sapiens, UniProt Q9HC16). In words: Dose Response confirmation of small molecule APOBEC3G DNA Deaminase Inhibitors via a fluorescence-based single-stranded DNA deaminase assay. [Related pubchem assays (depositor defined):AID493012, AID493028]. Format: functional.
In assay [22] the target is DNA dC->dU-editing enzyme APOBEC-3A (Homo sapiens, UniProt P31941). In words: A3A deaminase inhibition for selectivity – biochemical, dose response (AID 504722). Format: functional.
Chain of DNA dC->dU-editing enzyme APOBEC-3A (P31941 whole entry): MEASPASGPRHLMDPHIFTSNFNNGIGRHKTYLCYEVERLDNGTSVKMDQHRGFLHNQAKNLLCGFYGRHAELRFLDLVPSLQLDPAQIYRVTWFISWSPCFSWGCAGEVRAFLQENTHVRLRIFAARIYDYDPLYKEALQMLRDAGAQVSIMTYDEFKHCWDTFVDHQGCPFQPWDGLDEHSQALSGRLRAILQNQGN

Chain of Melanocortin receptor 4 (P32245 whole entry): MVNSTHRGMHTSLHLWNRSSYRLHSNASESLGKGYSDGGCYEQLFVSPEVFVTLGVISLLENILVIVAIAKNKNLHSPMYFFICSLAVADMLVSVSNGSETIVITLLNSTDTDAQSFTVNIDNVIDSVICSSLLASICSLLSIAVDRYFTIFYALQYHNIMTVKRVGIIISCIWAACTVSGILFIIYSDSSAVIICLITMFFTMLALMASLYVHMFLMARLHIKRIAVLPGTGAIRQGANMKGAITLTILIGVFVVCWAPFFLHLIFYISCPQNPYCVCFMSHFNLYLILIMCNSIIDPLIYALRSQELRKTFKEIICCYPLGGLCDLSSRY
Chain of Alkaline phosphatase, placental type (P05187 whole entry): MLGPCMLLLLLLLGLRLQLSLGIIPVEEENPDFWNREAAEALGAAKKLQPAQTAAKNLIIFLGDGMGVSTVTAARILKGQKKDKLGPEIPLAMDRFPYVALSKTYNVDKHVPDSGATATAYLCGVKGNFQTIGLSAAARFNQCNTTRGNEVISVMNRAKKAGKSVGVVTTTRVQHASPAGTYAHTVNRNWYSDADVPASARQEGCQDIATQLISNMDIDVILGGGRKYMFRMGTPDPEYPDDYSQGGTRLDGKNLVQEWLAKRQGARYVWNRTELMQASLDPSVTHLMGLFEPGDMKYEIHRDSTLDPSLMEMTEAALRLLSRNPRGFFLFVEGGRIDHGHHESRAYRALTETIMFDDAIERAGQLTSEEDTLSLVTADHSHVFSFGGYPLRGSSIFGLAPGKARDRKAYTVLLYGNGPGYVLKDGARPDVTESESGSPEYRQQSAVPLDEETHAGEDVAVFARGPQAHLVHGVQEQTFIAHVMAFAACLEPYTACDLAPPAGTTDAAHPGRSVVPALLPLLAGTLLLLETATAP
Chain of DNA dC->dU-editing enzyme APOBEC-3G (Q9HC16 whole entry): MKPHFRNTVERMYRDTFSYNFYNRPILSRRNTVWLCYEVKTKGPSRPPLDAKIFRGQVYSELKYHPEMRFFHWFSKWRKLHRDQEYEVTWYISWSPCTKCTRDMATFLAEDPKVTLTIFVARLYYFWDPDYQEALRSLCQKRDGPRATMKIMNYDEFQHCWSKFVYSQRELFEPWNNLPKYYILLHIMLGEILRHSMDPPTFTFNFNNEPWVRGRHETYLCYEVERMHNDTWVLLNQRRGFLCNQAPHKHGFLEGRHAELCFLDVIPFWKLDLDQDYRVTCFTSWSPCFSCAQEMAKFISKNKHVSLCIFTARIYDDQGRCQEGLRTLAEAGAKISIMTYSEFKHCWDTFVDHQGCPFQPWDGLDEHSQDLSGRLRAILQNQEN
Chain of Large T antigen (P03070 whole entry): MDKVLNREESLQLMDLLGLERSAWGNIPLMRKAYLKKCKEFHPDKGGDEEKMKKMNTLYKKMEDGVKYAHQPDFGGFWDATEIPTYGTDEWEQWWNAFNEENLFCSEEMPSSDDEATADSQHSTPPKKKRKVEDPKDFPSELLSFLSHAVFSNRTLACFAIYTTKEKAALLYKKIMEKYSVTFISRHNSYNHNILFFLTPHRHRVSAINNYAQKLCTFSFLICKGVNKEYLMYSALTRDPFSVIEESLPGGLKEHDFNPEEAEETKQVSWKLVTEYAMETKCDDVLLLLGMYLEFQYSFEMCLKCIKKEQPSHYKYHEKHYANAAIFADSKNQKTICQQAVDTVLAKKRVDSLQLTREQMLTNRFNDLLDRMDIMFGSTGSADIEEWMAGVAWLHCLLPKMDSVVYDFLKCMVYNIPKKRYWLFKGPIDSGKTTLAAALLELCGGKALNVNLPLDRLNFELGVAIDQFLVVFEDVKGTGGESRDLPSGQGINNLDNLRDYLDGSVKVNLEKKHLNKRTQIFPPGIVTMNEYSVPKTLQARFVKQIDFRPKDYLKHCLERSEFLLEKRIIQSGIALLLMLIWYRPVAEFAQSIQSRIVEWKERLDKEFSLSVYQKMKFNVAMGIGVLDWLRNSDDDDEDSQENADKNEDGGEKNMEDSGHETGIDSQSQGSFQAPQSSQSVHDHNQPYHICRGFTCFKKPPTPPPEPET
Chain of Beta-galactosidase (Q8VNN2 whole entry): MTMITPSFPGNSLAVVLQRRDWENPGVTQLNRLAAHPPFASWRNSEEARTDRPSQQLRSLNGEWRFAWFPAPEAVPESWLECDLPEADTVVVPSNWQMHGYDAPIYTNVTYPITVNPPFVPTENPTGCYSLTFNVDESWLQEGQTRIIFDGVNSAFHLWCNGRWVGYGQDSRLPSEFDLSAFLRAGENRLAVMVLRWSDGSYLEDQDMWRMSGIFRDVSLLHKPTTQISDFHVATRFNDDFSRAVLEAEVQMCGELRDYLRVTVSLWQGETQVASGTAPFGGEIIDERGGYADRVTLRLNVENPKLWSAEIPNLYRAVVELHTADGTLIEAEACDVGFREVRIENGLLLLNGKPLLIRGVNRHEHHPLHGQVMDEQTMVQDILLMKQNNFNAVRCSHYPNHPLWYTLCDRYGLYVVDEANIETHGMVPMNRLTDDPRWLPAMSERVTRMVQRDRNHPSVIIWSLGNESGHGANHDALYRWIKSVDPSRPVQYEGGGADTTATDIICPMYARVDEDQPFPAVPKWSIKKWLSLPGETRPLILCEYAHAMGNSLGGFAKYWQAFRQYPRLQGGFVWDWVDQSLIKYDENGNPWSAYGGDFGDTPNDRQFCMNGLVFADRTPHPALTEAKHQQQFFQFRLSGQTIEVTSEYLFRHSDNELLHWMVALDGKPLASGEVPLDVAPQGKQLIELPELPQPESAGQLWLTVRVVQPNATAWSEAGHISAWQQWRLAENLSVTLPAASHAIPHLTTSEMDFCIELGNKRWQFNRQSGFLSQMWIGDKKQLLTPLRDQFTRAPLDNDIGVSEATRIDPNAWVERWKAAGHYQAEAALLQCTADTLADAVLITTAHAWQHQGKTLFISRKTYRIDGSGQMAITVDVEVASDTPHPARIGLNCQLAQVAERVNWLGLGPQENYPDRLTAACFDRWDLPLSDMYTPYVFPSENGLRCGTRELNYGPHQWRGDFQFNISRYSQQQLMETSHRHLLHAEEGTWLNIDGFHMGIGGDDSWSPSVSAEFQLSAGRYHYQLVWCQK

Regarding `COc1cccc(C=NNc2nn3cnnc3c3ccccc23)c1O`, in assay [1], the IC50 is > 100 µM (inactive).

Turning to `O=C1NC(=O)N(c2ccccc2)C(=O)/C1=C\C=C\Nc1ccccc1`, the values for the IC50 (in [2]; at Insulin-degrading enzyme) were > 55.7 µM (not active) and > 55.9 µM (not active), respectively.

As for `C#CCSc1ncc(-c2ccccc2)cn1`, the half-maximal inhibitory concentration (IC50) on Protein skinhead-1 is 15.3 µM (active). The AC50 in assay [3] was 6.14 µM (active).

As to `c1ccc2c(CCNc3[nH]cnc4ncnc3-4)c[nH]c2c1`, the EC50 in assay [4] was 30.5 µM (active); with BJ [5], 24.4 µM (active); in the assay on BJ [6] it was 53.2 µM (active); in the assay on BJ [7] it was > 75 µM (not active).

For the molecule `Cn1nc(-c2ccc(Cl)cc2)c2cc(C(=O)NCCCN3CCCC3)sc21`, the EC50 in assay [4] was 12.4 µM (active); in the assay with BJ [5], 9.41 µM (active); with BJ [6] it was 23.1 µM (active); in assay [9] it was 4.65 µM (active); in [10] it was 4.01 µM (active); in the assay on BJ [7], > 150 µM (inconclusive). Besides, in assay [8], the AC50 is 6.39 µM (active).

As for `COc1cccc(OC)c1C(=O)Oc1ccc2c(c1)O/C(=C\c1ccncc1)C2=O`, in assay [11], the EC50 was 15.9 µM (active).

Consider `CCCOc1ccc(C(=O)c2ccccc2C(=O)OC2CCOC2=O)cc1OCCC` (configuration not stated), for which, in [11], the EC50 is 19.8 µM (active). Moreover, the IC50 (in [12]; at Melanocortin receptor 4) was > 64.6 µM (inactive) throughout.

Regarding `Clc1ccc(Nc2ncnc3ccc(Br)cc23)cc1`, the IC50 on Protein skinhead-1 is > 100 µM (inactive); in the assay on HEK293 [14], 1.47 µM (active); with HEK293 [15], > 20 µM (inactive); in the assay on HEK293 [17] it was 0.95 µM (active). For the same molecule, the results for the concentration at half-maximal activity (AC50) in assay [13] and in assay [3] were 4.4 µM (active) and 37.8 µM (active), respectively. Moreover, in the assay with HEK293 [16], the 50% effective concentration (EC50) is 3.06 µM (active).

As to `c1ccc(Cn2c(CNc3nc4ccccc4n3CCN3CCCCC3)nc3ccccc32)cc1`, the IC50 in assay [1] was > 100 µM (inactive); in assay [12] it was > 64.6 µM (inactive); at Melanocortin receptor 4, > 64.6 µM (inactive). In addition, the CC50 in [18] is 27.1 µM (active).

Regarding `COc1ccccc1N1C(=O)C=C(Sc2nc(C)cc(C)n2)C1=O`, the IC50 in assay [19] was > 66.6 µM (inactive); in [20] it was > 80 µM (inactive); at Large T antigen it was 24.3 µM (active); on Beta-galactosidase, > 66.6 µM (inactive).

In the case of `Sc1cnc2ccccc2n1`, the figures for the IC50 in [21] and in assay [22] were 7.85 µM (active) and > 100 µM (inactive), respectively.
